# Tests used:
# Assay type in all cases: functional
# [1] = Murine tumor cell selectivity was measured as zone unit differential between ([…]) murine cell line and (CFU) normal bone marrow in disk diffusion soft agar colony formation assay at a concentration of 1 ug/disk
# [2] = Human tumor selectivity was measured as zone unit differential between (H125) lung small cell carcinoma and (CEM) lymphocytic leukemia in disk diffusion soft agar colony formation assay at a concentration of 1 ug/disk
# [3] = Murine tumor cell selectivity was measured as zone unit differential between (C38) colon adenocarcinoma and (CFU) normal bone marrow in disk diffusion soft agar colony formation assay at a concentration of 1 ug/disk
# [4] = Human tumor selectivity was measured as zone unit differential between (H116) colon tumor and (CEM) lymphocytic leukemia in disk diffusion soft agar colony formation assay at a concentration of 1 ug/disk
# [5] = Murine tumor cell selectivity was measured as zone unit differential between (C38) colon adenocarcinoma and ([…]) murine cell line in disk diffusion soft agar colony formation assay at a concentration of 1 ug/disk
compound,measurement,setting,value
C=CCOC(=O)[C@H]1[C@H]2CC[C@H]3C[C@@]4(CCC=C[C@H](CC)O4)NC(=[N+]32)N[C@@]12CCC[C@@H](C)O2.[Cl-],Selectivity,[1],100
same,Selectivity,[2],0
same,Selectivity,[3],450
same,Selectivity,[4],0
same,Selectivity,[5],350

# From ChEMBL document CHEMBL1147463, “Synthesis and anticancer activity of side chain analogs of the crambescidin alkaloids” (2004)
